# Data published in ChEMBL document CHEMBL3734705, “Synthesis and in vitro cytotoxicity of novel C-12 substituted-14-deoxy-andrographolide derivatives as potent anti-cancer agents” (2015).
# Key:
# A498 [1] = assay: Cytotoxicity against human A498 cells assessed as growth level at 10 uM after 48 hrs by SRB assay; type: functional
# K562 = assay: Cytotoxicity against human K562 cells assessed as growth level at 10 uM after 48 hrs by SRB assay; type: functional
# [2] = Cytotoxicity against human OVCAR8 cells assessed as growth level at 10 uM after 48 hrs by SRB assay; type: functional, OVCAR-8
# [3] = Cytotoxicity against human NCI-ADR-RES cells assessed as growth level at 10 uM after 48 hrs by SRB assay; type: functional
# SK-MEL-28 [4] = assay: Cytotoxicity against human SK-MEL-28 cells assessed as growth level at 10 uM after 48 hrs by SRB assay; type: functional
# [5] = Cytotoxicity against human TK10 cells assessed as growth level at 10 uM after 48 hrs by SRB assay; type: functional, TK-10
# [6] = Cytotoxicity against human COLO205 cells assessed as growth level at 10 uM after 48 hrs by SRB assay; type: functional, COLO 205
# [7] = Cytotoxicity against human HCC2998 cells assessed as growth level at 10 uM after 48 hrs by SRB assay; type: functional, HCC 2998
# [8] = Cytotoxicity against human Caki1 cells assessed as growth level at 10 uM after 48 hrs by SRB assay; type: functional, CAKI-1
# [9] = Cytotoxicity against human RPMI8226 cells assessed as growth level at 10 uM after 48 hrs by SRB assay; type: functional, RPMI-8226
# MDA-MB-231 = assay: Cytotoxicity against human MDA-MB-231 cells assessed as growth level at 10 uM after 48 hrs by SRB assay; type: functional
# [10] = Cytotoxicity against human BT549 cells assessed as growth level at 10 uM after 48 hrs by SRB assay; type: functional, BT-549
# M14 [11] = assay: Cytotoxicity against human M14 cells assessed as growth level at 10 uM after 48 hrs by SRB assay; type: functional
# KM12 = assay: Cytotoxicity against human KM12 cells assessed as growth level at 10 uM after 48 hrs by SRB assay; type: functional
# EKVX = assay: Cytotoxicity against human EKVX cells assessed as growth level at 10 uM after 48 hrs by SRB assay; type: functional
# [12] = Cytotoxicity against human HOP92 cells assessed as growth level at 10 uM after 48 hrs by SRB assay; type: functional, HOP-92
# [13] = Cytotoxicity against human OVCAR5 cells assessed as growth level at 10 uM after 48 hrs by SRB assay; type: functional, OVCAR-5
# HT-29 = assay: Cytotoxicity against human HT-29 cells assessed as growth level at 10 uM after 48 hrs by SRB assay; type: functional
# [14] = Cytotoxicity against human SKOV3 cells assessed as growth level at 10 uM after 48 hrs by SRB assay; type: functional, SK-OV-3
# T47D [15] = assay: Cytotoxicity against human T47D cells assessed as growth level at 10 uM after 48 hrs by SRB assay; type: functional
# ACHN = assay: Cytotoxicity against human ACHN cells assessed as growth inhibition at 10 uM after 48 hrs by SRB assay; type: functional; conditions: read-out: GI
# [16] = Cytotoxicity against human TK10 cells assessed as growth inhibition at 10 uM after 48 hrs by SRB assay; type: functional; conditions: TK-10, 48 h, read-out: GI
# [17] = Cytotoxicity against human OVCAR4 cells assessed as growth inhibition at 10 uM after 48 hrs by SRB assay; type: functional; conditions: OVCAR-4, 48 h, read-out: GI
# [18] = Cytotoxicity against human COLO205 cells assessed as growth inhibition at 10 uM after 48 hrs by SRB assay; type: functional; conditions: COLO 205, 48 h, read-out: GI
# NCI-H460 = assay: Cytotoxicity against human NCI-H460 cells assessed as growth inhibition at 10 uM after 48 hrs by SRB assay; type: functional; conditions: NCI-H460, 48 h, read-out: GI
# M14 [19] = assay: Cytotoxicity against human M14 cells assessed as growth inhibition at 10 uM after 48 hrs by SRB assay; type: functional; conditions: M14, 48 h, read-out: GI
# [20] = Cytotoxicity against human HCT15 cells assessed as growth inhibition at 10 uM after 48 hrs by SRB assay; type: functional; conditions: HCT-15, 48 h, read-out: GI
# [21] = Cytotoxicity against human HCT116 cells assessed as growth inhibition at 10 uM after 48 hrs by SRB assay; type: functional; conditions: HCT-116, 48 h, read-out: GI
# T47D [22] = assay: Cytotoxicity against human T47D cells assessed as growth inhibition at 10 uM after 48 hrs by SRB assay; type: functional; conditions: read-out: GI
# NCI-H322M = assay: Cytotoxicity against human NCI-H322M cells assessed as growth inhibition at 10 uM after 48 hrs by SRB assay; type: functional; conditions: read-out: GI
# SK-MEL-28 [23] = assay: Cytotoxicity against human SK-MEL-28 cells assessed as growth inhibition at 10 uM after 48 hrs by SRB assay; type: functional; conditions: SK-MEL-28, 48 h, read-out: GI
# [24] = Cytotoxicity against human SNB19 cells assessed as growth inhibition at 10 uM after 48 hrs by SRB assay; type: functional; conditions: SNB-19, 48 h, read-out: GI
# [25] = Cytotoxicity against human OVCAR3 cells assessed as growth inhibition at 10 uM after 48 hrs by SRB assay; type: functional; conditions: OVCAR-3, 48 h, read-out: GI
# CCRF-CEM = assay: Cytotoxicity against human CCRF-CEM cells assessed as growth inhibition at 10 uM after 48 hrs by SRB assay; type: functional; conditions: read-out: GI
# [26] = Cytotoxicity against human HL-60(TB) cells assessed as growth inhibition at 10 uM after 48 hrs by SRB assay; type: functional; conditions: HL-60, 48 h, read-out: GI
# SK-MEL-5 = assay: Cytotoxicity against human SK-MEL-5 cells assessed as growth inhibition at 10 uM after 48 hrs by SRB assay; type: functional; conditions: SK-MEL-5, 48 h, read-out: GI
# [27] = Cytotoxicity against human SF539 cells assessed as growth inhibition at 10 uM after 48 hrs by SRB assay; type: functional; conditions: SF-539, 48 h, read-out: GI
# [28] = Cytotoxicity against human BT549 cells assessed as growth inhibition at 10 uM after 48 hrs by SRB assay; type: functional; conditions: BT-549, 48 h, read-out: GI
# [29] = Cytotoxicity against human SF268 cells assessed as growth inhibition at 10 uM after 48 hrs by SRB assay; type: functional; conditions: SF-268, 48 h, read-out: GI
# [30] = Cytotoxicity against human Caki1 cells assessed as growth inhibition at 10 uM after 48 hrs by SRB assay; type: functional; conditions: CAKI-1, 48 h, read-out: GI
# A498 [31] = assay: Cytotoxicity against human A498 cells assessed as growth inhibition at 10 uM after 48 hrs by SRB assay; type: functional; conditions: A498, 48 h, read-out: GI
# [32] = Cytotoxicity against human SNB75 cells assessed as growth inhibition at 10 uM after 48 hrs by SRB assay; type: functional; conditions: SNB-75, 48 h, read-out: GI
# [33] = Cytotoxicity against human PC3 cells assessed as growth inhibition at 10 uM after 48 hrs by SRB assay; type: functional; conditions: PC-3, 48 h, read-out: GI
compound,measurement,setting,value
C=C1CC[C@@H]2[C@](C)(COC(C)=O)[C@H](OC(C)=O)CC[C@@]2(C)[C@@H]1CC(Nc1ccc(S(=O)(=O)NC(C)=O)cc1)C1=CCOC1=O (mixture of isomers),Activity,A498 [1],73.42%
same,Activity,K562,4.81%
same,Activity,[2],-18.21%
same,Activity,[3],11.87%
same,Activity,SK-MEL-28 [4],-36.62%
same,Activity,[5],2.78%
same,Activity,[6],-32.73%
same,Activity,[7],-12.74%
same,Activity,[8],30.25%
same,Activity,[9],-16.18%
same,Activity,MDA-MB-231,-38.71%
same,Activity,[10],-62.63%
same,Activity,M14 [11],-35.08%
same,Activity,KM12,-34%
same,Activity,EKVX,57.45%
same,Activity,[12],20.95%
same,Activity,[13],-40.14%
same,Activity,HT-29,-69.92%
same,Activity,[14],67.34%
same,Activity,T47D [15],-3.67%
C=C1CC[C@@H]2[C@](C)(COC(C)=O)[C@H](OC(C)=O)CC[C@@]2(C)[C@@H]1CC(Sc1ccccc1)C1=CCOC1=O (mixture of isomers),Activity,A498 [1],86.34%
same,Activity,K562,3.95%
same,Activity,[2],11.88%
same,Activity,[3],10.07%
same,Activity,SK-MEL-28 [4],6.34%
same,Activity,[5],11.37%
same,Activity,[6],-68.06%
same,Activity,[7],44.69%
same,Activity,[8],90.6%
same,Activity,[9],-4.72%
same,Activity,MDA-MB-231,7.4%
same,Activity,[10],-22.62%
same,Activity,M14 [11],-4.19%
same,Activity,KM12,18.58%
same,Activity,EKVX,57.74%
same,Activity,[12],24.5%
same,Activity,[13],39.82%
same,Activity,HT-29,-39.29%
same,Activity,[14],57.71%
same,Activity,T47D [15],7.94%
C=C1CC[C@@H]2[C@](C)(COC(C)=O)[C@H](OC(C)=O)CC[C@@]2(C)[C@@H]1CC(NCCCC)C1=CCOC1=O (mixture of isomers),inhibition of growth at 10 µM,ACHN,0.58%
same,Activity,A498 [1],75.44%
same,Activity,K562,69.53%
same,inhibition of growth at 10 µM,[16],0.94%
same,Activity,[2],89.63%
same,Activity,[3],87.27%
same,Activity,SK-MEL-28 [4],98.09%
same,inhibition of growth at 10 µM,[17],14.3%
same,inhibition of growth at 10 µM,[18],17.9%
same,Activity,[5],99.06%
same,inhibition of growth at 10 µM,NCI-H460,8.38%
same,inhibition of growth at 10 µM,M14 [19],7.25%
same,Activity,[6],82.08%
same,inhibition of growth at 10 µM,[20],3.11%
same,inhibition of growth at 10 µM,[21],19.8%
same,Activity,[7],92.1%
same,inhibition of growth at 10 µM,T47D [22],28%
same,inhibition of growth at 10 µM,NCI-H322M,3.78%
same,Activity,[8],90.95%
same,Activity,[9],60.49%
same,Activity,MDA-MB-231,79.12%
same,Activity,[10],89.2%
same,inhibition of growth at 10 µM,SK-MEL-28 [23],1.91%
same,Activity,M14 [11],92.75%
same,inhibition of growth at 10 µM,[24],12.7%
same,inhibition of growth at 10 µM,[25],8.88%
same,Activity,KM12,92.79%
same,inhibition of growth at 10 µM,CCRF-CEM,19.3%
same,inhibition of growth at 10 µM,[26],6.18%
same,inhibition of growth at 10 µM,SK-MEL-5,24%
same,Activity,EKVX,71.43%
same,inhibition of growth at 10 µM,[27],9.46%
same,Activity,[12],53.32%
same,inhibition of growth at 10 µM,[28],10.8%
same,inhibition of growth at 10 µM,[29],23%
same,inhibition of growth at 10 µM,[30],9.05%
same,inhibition of growth at 10 µM,A498 [31],24.6%
same,Activity,[13],95.04%
same,inhibition of growth at 10 µM,[32],22.1%
same,Activity,HT-29,82.56%
same,Activity,[14],92.42%
same,inhibition of growth at 10 µM,[33],48.8%
same,Activity,T47D [15],71.96%
C=C1CC[C@@H]2[C@](C)(CO)[C@H](O)CC[C@@]2(C)[C@@H]1C/C=C1/C(=O)OC[C@H]1O [ANDROGRAPHOLIDE],inhibition of growth at 10 µM,ACHN,10.2%
same,Activity,A498 [1],87.79%
same,Activity,K562,65.53%
same,inhibition of growth at 10 µM,[16],2.51%
same,Activity,[2],84.48%
same,Activity,[3],83.75%
same,Activity,SK-MEL-28 [4],95.46%
same,inhibition of growth at 10 µM,[17],17.1%
same,inhibition of growth at 10 µM,[18],5.1%
same,Activity,[5],97.49%
same,inhibition of growth at 10 µM,NCI-H460,2.02%
same,inhibition of growth at 10 µM,M14 [19],15.1%
same,Activity,[6],94.9%
same,inhibition of growth at 10 µM,[20],38.1%
same,inhibition of growth at 10 µM,[21],40%
same,Activity,[7],114.39%
same,inhibition of growth at 10 µM,T47D [22],12.2%
same,inhibition of growth at 10 µM,NCI-H322M,7.26%
same,Activity,[8],96.7%
same,Activity,[9],83.28%
same,Activity,MDA-MB-231,106.75%
same,Activity,[10],87.11%
same,inhibition of growth at 10 µM,SK-MEL-28 [23],4.54%
same,Activity,M14 [11],84.88%
same,inhibition of growth at 10 µM,[24],12%
same,inhibition of growth at 10 µM,[25],40.8%
same,Activity,KM12,80.24%
same,inhibition of growth at 10 µM,CCRF-CEM,76.5%
same,inhibition of growth at 10 µM,SK-MEL-5,22.7%
same,Activity,EKVX,104.75%
same,inhibition of growth at 10 µM,[27],16.6%
same,Activity,[12],107.7%
same,inhibition of growth at 10 µM,[28],12.9%
same,inhibition of growth at 10 µM,[29],2.34%
same,inhibition of growth at 10 µM,[30],3.3%
same,inhibition of growth at 10 µM,A498 [31],12.2%
same,Activity,[13],104.24%
same,inhibition of growth at 10 µM,[32],38%
same,Activity,HT-29,27%
same,Activity,[14],103.76%
same,inhibition of growth at 10 µM,[33],6.6%
same,Activity,T47D [15],87.76%
